Source: US5438053A, “Cephem compounds compositions and method” (Takeda Chemical Industries, Ltd., priority 1992, dated 1995)

Key:
P. aeruginosa P9 = test: Minimal inhibitory concentration (MIC) by the agar dilution method, P. aeruginosa P9; assay type: cell-based; settings: Pseudomonas aeruginosa, Mueller-Hinton agar, about 10^4 CFU/spot, 37° C. overnight
Protocol: (§1) Test Example 1 Minimal Inhibitory Concentrations (MIC)
(§2) The minimal inhibitory concentrations (MIC) of the test compounds were determined by the agar dilution method. More specifically, 0.25 ml each of aqueous solutions of the test compounds diluted by the serial dilution method was poured into petridishes. To each of these petridishes was poured 9.75 ml of Mueller-Hinton agar, followed by mixing. On each of these agar plates was a suspension of the test microorganism (about 10^4 CFU/spot). The lowest concentration of the test compounds inhibiting the growth of test microorganisms, after the incubation at 37° C. overnight, was taken as MIC.

P. aeruginosa NC-5 = test: Minimal inhibitory concentration (MIC) by the agar dilution method, P. aeruginosa NC-5; assay type: cell-based; settings: Pseudomonas aeruginosa, NC5, Mueller-Hinton agar, about 10^4 CFU/spot, 37° C. overnight
Protocol: as §1, §2

MIC (P. aeruginosa P9) [µg/mL]	MIC (P. aeruginosa NC-5) [µg/mL]	SMILES
0.1	0.05	CO/N=C(\C(=O)N[C@@H]1C(=O)N2C(C(=O)O)=C(CSc3snc(SCc4cc(=O)c(O)cn4O)c3C#N)CS[C@H]12)c1nsc(N)n1 [Ex. 3, Sodium 7β-[2-(5-amino-1,2,4-thiadiazol-3-yl)-(Z)-2-methoxyiminoacetamido]-3-[[4-cyano-3-[(1,5-dihydroxy-4-pyridon-2-yl)methylthio]isothiazol-5-yl]thiomethyl]-3-cephem-4-carboxylate]
0.2	0.1	CO/N=C(\C(=O)N[C@@H]1C(=O)N2C(C(=O)O)=C(CSc3nnnn3Cc3cc(=O)c(O)cn3OC)CS[C@H]12)c1nsc(N)n1 [Ex. 10, Sodium 7β-[2-(5-amino-1,2,4-thiadiazol-3-yl)-(Z)-2-methoxyiminoacetamido]-3-[[1-[(5-hydroxy-1-methoxy-4-pyridon-2-yl)methyl]-1H-tetrazol-5-yl]thiomethyl]-3-cephem-4-carboxylate]
0.2	0.2	CCO/N=C(\C(=O)N[C@@H]1C(=O)N2C(C(=O)O)=C(CSc3nnnn3Cc3cc(=O)c(O)cn3OC)CS[C@H]12)c1nsc(N)n1 [Ex. 12, Sodium 7β-[2-(5-amino-1,2,4-thiadiazol-3-yl)-(Z)-2-ethoxyiminoacetamido]-3-[[1-[(5-hydroxy-1-methoxy-4-pyridon-2-yl)methyl]-1H-tetrazol-5-yl]thiomethyl]-3-cephem-4-carboxylate]
0.025	0.006	CC(C)(O/N=C(\C(=O)N[C@@H]1C(=O)N2C(C(=O)O)=C(CSc3nnnn3Cc3cc(=O)c(O)cn3O)CS[C@H]12)c1nsc(N)n1)C(=O)O [Ex. 26, Disodium 7β-[2-(5-amino-1,2,4-thiadiazol-3-yl)-(Z)-2-(1-carboxylato-1-methylethoxyimino)acetamido]-3-[[1-[(1,5-dihydroxy-4-pyridon-2-yl)methyl]-1H-tetrazol-5-yl]thiomethyl]-3-cephem-4-carboxylate]
